Assay results: the NIST ThermoML archive (doi:10.1021/je200853g)
Numbers after ± are expanded uncertainties.

What was measured:
[1] = Crystal; DTA
[2] = Molar enthalpy of transition or fusion; conditions: Crystal; DSC

Cc1ncc(CO)c(CO)c1O [5-hydroxy-6-methyl-3,4-pyridinedimethanol]
Triple point temperature [1]: 433.18 ± 0.5 K
Molar enthalpy of transition or fusion [2]: 7.45 ± 0.217 kcal/mol
